Assay results from ChEMBL document CHEMBL4028815, “Novel phosphonate analogs of sulforaphane: Synthesis, in vitro and in vivo anticancer activity” (Eur J Med Chem, 2017).
The source made the active and inactive calls. The calls are words filed in the database; no cut-off is given here.

Assays:
LoVo [1] = experiment: Cell cycle arrest in human LoVo cells assessed as decrease in accumulation at G0/G1 phase at 15 uM after 24 hrs by propidium iodide staining based flow cytometric method; assay type: functional
LoVo [2] = experiment: Cell cycle arrest in human LoVo cells assessed as accumulation at G2/M phase at 15 uM after 24 hrs by propidium iodide staining based flow cytometric method; assay type: functional
LoVo [3] = experiment: Cytotoxicity against human LoVo cells after 72 hrs by sulforhodamine B assay; assay type: functional, cell-based
BALB/3T3 = experiment: Cytotoxicity against mouse BALB/3T3 cells after 72 hrs by sulforhodamine B assay; assay type: cell-based; conditions: BALB/3T3, 72 h
Mus musculus [4] = experiment: Toxicity in BALB/c mdb mouse implanted with mouse 4T1 cells assessed as body weight loss at 100 umol/kg, ip administered five times weekly measured 3 times weekly during compound dosing; assay type: organism-based; conditions: in vivo
Mus musculus [5] = experiment: Toxicity in BALB/c mdb mouse implanted with mouse 4T1 cells assessed as spleen weight at 100 umol/kg, ip administered five times weekly measured at 29 day post cell innoculum (reference value: 0.603 +/- 0.133 g); assay type: organism-based; conditions: in vivo, 696 h
Mus musculus [6] = experiment: Toxicity in BALB/c mdb mouse implanted with mouse 4T1 cells assessed as WBC level at 100 umol/kg, ip administered five times weekly measured at 29 day post cell innoculum (reference value: 212.3 +/- 82.8 10^3/uL); assay type: organism-based; conditions: in vivo, 696 h
HL-60 = experiment: Cytotoxicity against human HL60 cells after 72 hrs by sulforhodamine B assay; assay type: functional, cell-based; conditions: HL-60, 72 h
Mus musculus [7] = experiment: Toxicity in BALB/c mdb mouse implanted with mouse 4T1 cells assessed as serum ALT level at 100 umol/kg, ip administered five times weekly measured at 29 day post cell innoculum (reference value: 23.8 +/- 2.2 U/L); assay type: organism-based; conditions: in vivo, 696 h
LoVo [8] = experiment: Induction of apoptosis in human LoVo cells assessed as necrotic cells at 15 uM after 24 hrs by APC-Annexin-V/propidium iodide staining based flow cytometric method (reference value: 10%); assay type: functional
LoVo [9] = experiment: Potency index, ratio of sulforaphane IC50 to compound IC50 for human LoVo cells; assay type: functional
[10] = Induction of apoptosis in human LoVo/DX cells assessed as increase in caspase3/7 activity at 15 uM using Ac-DEVD-ACC as substrate pretreated for 24 hrs followed by substrate addition measured for 2 hrs by fluorescence assay relative to control; assay type: functional
Mus musculus [11] = experiment: Toxicity in BALB/c mdb mouse implanted with mouse 4T1 cells assessed as serum urea level at 100 umol/kg, ip administered five times weekly measured at 29 day post cell innoculum (reference value: 3.8 +/- […]); assay type: organism-based; conditions: in vivo, 696 h
4T1 [12] = experiment: Cytotoxicity against mouse 4T1 cells after 72 hrs by sulforhodamine B assay; assay type: functional, cell-based; conditions: 4T1, 72 h
MES-SA = experiment: Cytotoxicity against human MESSA cells after 72 hrs by sulforhodamine B assay; assay type: functional, cell-based
[13] = Resistance index, ratio of IC50 for human HL60/MX2 cells to IC50 for human HL60 cells; assay type: functional
Mus musculus [14] = experiment: Toxicity in BALB/c mdb mouse implanted with mouse 4T1 cells assessed as hemoglobin level at 100 umol/kg, ip administered five times weekly measured at 29 day post cell innoculum (reference value: 15.1 +/- 1.5 g/dl); assay type: organism-based; conditions: in vivo, 696 h
4T1 [15] = experiment: Anti-tumor activity against mouse 4T1 cells implanted in BALB/c mdb mouse assessed as tumor growth inhibition at 100 umol/kg, ip administered five times weekly measured on day 29 post cell innoculum relative to control; assay type: functional; conditions: 4T1, ip, 696 h, read-out: TGI
[16] = Resistance index, ratio of IC50 for human LoVo/DX cells to IC50 for human LoVo cells; assay type: functional
LoVo/DX [17] = experiment: Induction of apoptosis in human LoVo/DX cells assessed as increase in caspase3/7 activity at >15 uM using Ac-DEVD-ACC as substrate pretreated for 24 hrs followed by substrate addition measured for 2 hrs by fluorescence assay; assay type: functional, cell-based
Mus musculus [18] = experiment: Hepatotoxicity in BALB/c mdb mouse implanted with mouse 4T1 cells assessed as liver weight at 100 umol/kg, ip administered five times weekly measured at 29 day post cell innoculum (reference value: 1.2 +/- 0.13 g); assay type: toxicity, organism-based; conditions: in vivo, 696 h
LoVo [19] = experiment: Induction of apoptosis in human LoVo cells assessed as increase in early apoptotic cells at 15 uM after 24 hrs by APC-Annexin-V/propidium iodide staining based flow cytometric method relative to control; assay type: functional
[20] = Induction of apoptosis in human LoVo/DX cells assessed as late apoptotic cells at 15 uM after 24 hrs by APC-Annexin-V/propidium iodide staining based flow cytometric method relative to control; assay type: functional
4T1 [21] = experiment: Anti-tumor activity against mouse 4T1 cells implanted in BALB/c mdb mouse assessed as tumor growth inhibition at 100 umol/kg, ip administered five times weekly measured on day 15 post cell innoculum relative to control; assay type: functional; conditions: 4T1, ip, 360 h, read-out: TGI
4T1 [22] = experiment: Anti-tumor activity against mouse 4T1 cells implanted in BALB/c mdb mouse assessed as lung metastasis at 100 umol/kg, ip administered five times weekly measured at 29 days post cell innoculum (reference value: 56 +/- 25); assay type: functional
HL60/MX2 = experiment: Cytotoxicity against human HL60/MX2 cells after 72 hrs by sulforhodamine B assay; assay type: functional, cell-based; conditions: HL60/MX2, 72 h
[23] = Cytotoxicity against human LoVo/DX cells after 72 hrs by sulforhodamine B assay; assay type: functional, cell-based
LoVo/DX [24] = experiment: Cell cycle arrest in human LoVo/DX cells assessed as accumulation at G2/M phase at 15 uM after 24 hrs by propidium iodide staining based flow cytometric method; assay type: functional
MES-SA/Dx5 = experiment: Cytotoxicity against human MESSA/DX5 cells after 72 hrs by sulforhodamine B assay; assay type: functional, cell-based; conditions: MES-SA/Dx5, 72 h
LoVo [25] = experiment: Potency index, ratio of benzyl isothiocyanate IC50 to compound IC50 for human LoVo cells; assay type: functional
[26] = Cytotoxicity against human LoVo/DX cells assessed as cell death at >15 uM after 24 hrs; assay type: cell-based
Mus musculus [27] = experiment: Toxicity in BALB/c mdb mouse implanted with mouse 4T1 cells assessed as hematocrit at 100 umol/kg, ip administered five times weekly measured at 29 day post cell innoculum (reference value: 39.9 +/- 3.7 %); assay type: organism-based; conditions: in vivo, 696 h
Mus musculus [28] = experiment: Toxicity in BALB/c mdb mouse implanted with mouse 4T1 cells assessed as lung weight at 100 umol/kg, ip administered five times weekly measured at 29 day post cell innoculum (reference value: 0.2 +/- 0.018 g); assay type: organism-based; conditions: in vivo, 696 h
Mus musculus [29] = experiment: Toxicity in BALB/c mdb mouse implanted with mouse 4T1 cells assessed as serum PLT level at 100 umol/kg, ip administered five times weekly measured at 29 day post cell innoculum (reference value: 972 +/- 157 10^3/uL); assay type: organism-based; conditions: in vivo, 696 h
LoVo [30] = experiment: Cytotoxicity against human LoVo cells assessed as cell death at >15 uM after 24 hrs; assay type: cell-based
A549 = experiment: Cytotoxicity against human A549 cells after 72 hrs by sulforhodamine B assay; assay type: functional, cell-based; conditions: A549, 72 h
Mus musculus [31] = experiment: Toxicity in BALB/c mdb mouse implanted with mouse 4T1 cells assessed as serum AST level at 100 umol/kg, ip administered five times weekly measured at 29 day post cell innoculum (reference value: 136 +/- 10.3 U/L); assay type: organism-based; conditions: in vivo, 696 h

O=P(CCCCCCN=C=S)(Oc1ccccc1)Oc1ccccc1
Activity (LoVo [1]): Active
Activity (LoVo [2]): Active
IC50 (LoVo [3]): 2.9 µM
IC50 (BALB/3T3): 11.5 µM
Activity (Mus musculus [4]): <= 10%
Activity (Mus musculus [5]): 0.632 g
Activity (Mus musculus [6]): 375.9 ×10³ /uL
IC50 (HL-60): 0.8 µM
Activity (Mus musculus [7]): 33.3 U/L
Activity (LoVo [8]): 23.3%
Ratio IC50 (LoVo [9]): 10
fold change (FC) [10]: 6.8
Activity (Mus musculus [11]): 4.9 mmol/L
IC50 (4T1 [12]): 2.9 µM
IC50 (MES-SA): 10.6 µM
Ratio IC50 [13]: 4.3
Activity (Mus musculus [14]): 20.8 g/dL
inhibition in vivo at 100 µmol/kg (4T1 [15]): -6.4%
Ratio IC50 [16]: 4
Activity (LoVo/DX [17]): inactive
Activity (Mus musculus [18]): 1.32 g
Activity (LoVo [19]): inactive
Activity [20]: 59.7%
inhibition in vivo at 100 µmol/kg (4T1 [21]): 23.1%
Activity (4T1 [22]): 46
IC50 (HL60/MX2): 3.3 µM
IC50 [23]: 11.2 µM
Activity (LoVo/DX [24]): Active
IC50 (MES-SA/Dx5): 8.3 µM
Ratio IC50 (LoVo [25]): 5
Activity [26]: Toxic
Activity (Mus musculus [27]): 57.6%
Activity (Mus musculus [28]): 0.294 g
Activity (Mus musculus [29]): 855 ×10³ /uL
Activity (LoVo [30]): Toxic
IC50 (A549): 11.1 µM
Activity (Mus musculus [31]): 153 U/L
